The source of these data is patent US8354522B2, “Immunostimulatory oligoribonucleotides” (Coley Pharmaceutical GmbH, priority 2005, dated 2013).

Like-named read-outs stand apart in the source and are kept apart here.

For this data set, the system named is Human PBMC. In words: Cytokine production upon human PBMC stimulation (ORN complexed to DOTAP, 16 h, ELISA). The format is cell-based. Also noted: key to IFN-alpha / TNF-alpha: +: cytokine production; −: no cytokine production. The following applies: for IFN-alpha / TNF-alpha: human PBMC stimulated for 16 h, supernatant ELISA; for EC50 / IFN-alpha max activity / TNF-alpha max activity / IFN-alpha production upon PBMC stimulation (in words): human PBMC; for EC50 / IFN-alpha max activity / TNF-alpha max activity: ORN complexed to DOTAP, 16 h; for EC50: full titration 2 μM to 0.9 nM; for IFN-alpha max activity / TNF-alpha max activity: mean max activity at 0.6 μM, 3-6 blood donors. As for the experimental part:
Human peripheral blood mononuclear cells (PBMCs) were isolated from healthy donors, plated, and stimulated in vitro with various test and control immunostimulatory agents for 16 hours. After 16 hours, the supernatants were collected and then analyzed by ELISA assay. N-U-R1-R2,-Containing Oligoribonucleotides were tested complexed to DOTAP and with full titration curves (7 concentrations), starting from 2 μM ORN complexed to 25 μg/ml DOTAP and with 1/3 dilution steps. Also included were certain negative controls, including medium alone and DOTAP (25 μg/ml culture well; “Liposomes”) alone. The control immunostimulatory agents included the imidazoquinoline R-848 (2 μM with 1/3 dilution steps and 7 concentrations) the reported ligand for TLR7, ORN having TLR8 motifs such as AU and AUU sequences (SEQ ID NO:13-SEQ ID NO:15) ORN having TLR7/8 motifs such as CU, GU and GUU sequences (SEQ ID NO:19-SEQ ID NO:23).
Human PBMC were stimulated with ORN complexed to DOTAP. After 16 hours supernatants were harvested and TNF-alpha and IFN-alpha levels were measured. Mean/Max activities at 0.6 μM of 3-6 blood donors and two individual experiments were determined. […] TLR8 and TLR7/8 ORN are divided by a red line.
Human PBMC were stimulated with ORN complexed to DOTAP. After 16 hours supernatants were harvested and IFN-alpha levels were measured. Mean/Max activities at 0.6 μM and EC50 of full titration curves (range: 2 μM to 0.9 nM) of 3-6 blood donors and two individual experiments were determined. […] Low EC50/high Max activity represents TLR7/8 ORN (FIG. 5a) whereas high EC50 and low Max activity represents TLR8 ORN (FIG. 5b).
The ORN sequences listed in Table 1 were tested for IFN-alpha and TNF-alpha production upon human PBMC stimulation. Human PBMC were stimulated for 16 h with the indicated ORN, and supernatants were harvested and cytokine production measured by ELISA. Table 2 summarizes the min/max activity and EC50 of ORN for IFN-alpha and TNF-alpha production.

Turning to “U*G*U*G*U*G*U (UGUGUGU; phosphorothioate linkages, chemistry not fully specified) [SEQ ID NO: 31]”, the IFN-alpha entry was “+” and the TNF-alpha entry is on record as “+”.
Substance “C*C*G*A*G*C*C*G*C*A*U*U*C*C*C*C (CCGAGCCGCAUUCCCC; listed as RNA, chemistry not fully specified) [SEQ ID NO: 54]” displayed an IFN-alpha max activity of 1233 pg/mL and a TNF-alpha max activity of 12595 pg/mL. Besides, the EC50 (in general, the concentration needed to bring the measured effect to its halfway point) (read-out: IFN-alpha EC50) was found to be 780 nM. For the same substance, the concentration for a half-maximal effect (EC50) (read-out: TNF-alpha EC50) turned out to be 339 nM.
For “C*C*G*A*G*C*C*G*A*C*U*G*U*A*C*C (CCGAGCCGACUGUACC; listed as RNA, chemistry not fully specified) [SEQ ID NO: 61]”, in that order: 587.7 pg/mL, 42180 pg/mL, 736 nM and 141 nM.
“dN*dN*dN*dN*dN*A*U*A*U*A*U*A*U*dN*dN*dN*dN*dN*dN [SEQ ID NO: 9]”: the IFN-alpha result is on record as “−” and the TNF-alpha result is listed as “+”.
On to “U*C*U*C*U*C*U (UCUCUCU; phosphorothioate linkages, chemistry not fully specified) [SEQ ID NO: 32]”, for which the IFN-alpha result is “+” and the TNF-alpha entry is on record as “+”.
As to “C*C*G*A*G*C*C*G*A*T*U*U*C*A*C*C [SEQ ID NO: 79] (CCGAGCCGANUUCACC; Oligoribonucleotide, chemistry of T and the '*' linkage is not given here, further chemistry not given here)”, the IFN-alpha max activity was 1152 pg/mL and the TNF-alpha max activity came out at 17728 pg/mL. Also, the EC50 (read-out: IFN-alpha EC50) was 35 nM. For the same substance, the half-maximal effective concentration (EC50) (read-out: TNF-alpha EC50) was determined as 334 nM.
For the substance “U*U*A*U*U*A*U (UUAUUAU; phosphorothioate linkages, chemistry not fully specified) [SEQ ID NO: 30]”, the IFN-alpha result was “−” and the TNF-alpha result is listed as “+”.
For “C*C*G*A*G*C*C*G*A*A*G*G*C*A*C*C (CCGAGCCGAAGGCACC; listed as RNA, chemistry not fully specified) [SEQ ID NO: 56]”, the IFN-alpha max activity is 59.84 pg/mL and the TNF-alpha max activity amounted to 4430 pg/mL. Also, where the note is “read-out: IFN-alpha EC50”, the 50% effective concentration (EC50) was more than 2000 nM.
In turn, “C*C*G*A*G*C*C*G*A*A*U*U*U*A*C*C (CCGAGCCGAAUUUACC; listed as RNA, chemistry not fully specified) [SEQ ID NO: 60]” gave an IFN-alpha max activity of 1463 pg/mL and a TNF-alpha max activity of 36562 pg/mL. In addition, for the setting “read-out: IFN-alpha EC50”, the EC50 stood at 109 nM. Besides, the EC50 (read-out: TNF-alpha EC50) was 187 nM.
The matching figures for “C*C*G*A*G*C*C*G*A*U*U*G*C*A*C*C (CCGAGCCGAUUGCACC; listed as RNA, chemistry not fully specified) [SEQ ID NO: 74]”: 609.1 pg/mL, 30958 pg/mL, 419 nM and 329 nM.
With “C*C*G*A*G*C*C*G*C*C*G*C*C*C*C*C (CCGAGCCGCCGCCCCC; listed as RNA, chemistry not fully specified) [SEQ ID NO: 35]”, the IFN-alpha max activity turned out to be 70.6 pg/mL and the TNF-alpha max activity was determined as 2854 pg/mL. The EC50 (read-out: IFN-alpha EC50) is more than 2000 nM.
Regarding “C*C*G*A*G*C*C*G*C*C*U*A*A*C*C*C (CCGAGCCGCCUAACCC; listed as RNA, chemistry not fully specified) [SEQ ID NO: 43]”, the IFN-alpha max activity was 144.3 pg/mL and the TNF-alpha max activity stood at 10261 pg/mL. The EC50 (read-out: IFN-alpha EC50) is more than 2000 nM. Further, for the setting “read-out: TNF-alpha EC50”, the EC50 was found to be 954 nM.
For “C*C*G*A*G*C*C*G*C*A*A*U*U*C*C*C [SEQ ID NO: 52] (CCGAGCCGCAAUUCCC; listed as RNA, chemistry not fully specified)”, in that order: 2263 pg/mL, 11920 pg/mL, 508 nM and 895 nM.
“C*C*G*A*G*C*C*G*A*A*G*C*U*G*C*C (CCGAGCCGAAGCUGCC; listed as RNA, chemistry not fully specified) [SEQ ID NO: 88]” displayed an IFN-alpha max activity of 73.19 pg/mL and a TNF-alpha max activity of 11996 pg/mL. Moreover, under “read-out: IFN-alpha EC50”, the EC50 was more than 2000 nM.
As to “U*U*U*A*U*U*U*A*U*U*U*A*U*U*U*A*U*U*U*A (UUUAUUUAUUUAUUUAUUUA; chemistry not fully specified) [SEQ ID NO: 14]”, the “IFN-alpha production upon PBMC stimulation (in words)” value is given as “induced IFN-alpha production”, the IFN-alpha entry is “+” and the TNF-alpha result was “+”.
“C*C*G*A*G*C*C*G*A*U*T*U*T*A*C*C (CCGAGCCGAUTUTACC; Oligoribonucleotide, chemistry of T and the '*' linkage is not given here, further chemistry not given here) [SEQ ID NO: 70]”: the IFN-alpha max activity was 1702 pg/mL and the TNF-alpha max activity is 44904 pg/mL. Besides, the EC50 (read-out: IFN-alpha EC50) is 132 nM. In addition, the EC50 (read-out: TNF-alpha EC50) stood at 150 nM.
As for “U*U*U*G*U*U*U*G*U*U*U*G*U*U*U*G*U*U*U*G (UUUGUUUGUUUGUUUGUUUG; listed as RNA, chemistry not fully specified) [SEQ ID NO: 22]”, the IFN-alpha result is “+” and the TNF-alpha entry is “+”.
Take “C*C*G*A*G*C*C*G*A*U*U*U*T*A*C*C (CCGAGCCGAUUUNACC; Oligoribonucleotide, chemistry of T and the '*' linkage is not given here, further chemistry not given here) [SEQ ID NO: 72]”: the IFN-alpha max activity was 1896 pg/mL and the TNF-alpha max activity is 38811 pg/mL. Further, the EC50 (read-out: IFN-alpha EC50) was found to be 75 nM. For the same substance, where the note is “read-out: TNF-alpha EC50”, the EC50 came to 146 nM.
For “C*C*G*A*G*C*C*G*A*C*U*U*U*A*C*C (CCGAGCCGACUUUACC; listed as RNA, chemistry not fully specified) [SEQ ID NO: 57]”, in that order: 1499 pg/mL, 33624 pg/mL, 77 nM and 213 nM.
For “C*C*G*A*G*C*C*G*A*G*U*U*C*A*C*C [SEQ ID NO: 77] (CCGAGCCGAGUUCACC; listed as RNA, chemistry not fully specified)”, in that order: 2519 pg/mL, 21820 pg/mL, 151 nM and 257 nM.
The matching figures for “C*C*G*A*G*C*C*G*C*A*U*A*U*C*C*C (CCGAGCCGCAUAUCCC; listed as RNA, chemistry not fully specified) [SEQ ID NO: 36]”: 110.4 pg/mL, 18063 pg/mL, not below 1500 nM and 850 nM.
Consider “C*C*G*A*G*C*C*G*C*U*A*U*A*C*C*C (CCGAGCCGCUAUACCC; listed as RNA, chemistry not fully specified) [SEQ ID NO: 37]”, for which the IFN-alpha max activity turned out to be 240.5 pg/mL and the TNF-alpha max activity was 22800 pg/mL. The concentration giving a half-maximal response (EC50) (read-out: IFN-alpha EC50) is not below 1500 nM. The EC50 (read-out: TNF-alpha EC50) stood at 750 nM.
For the substance “C*C*G*A*G*C*C*G*C*U*A*U*U*C*C*C (CCGAGCCGCUAUUCCC; listed as RNA, chemistry not fully specified) [SEQ ID NO: 51]”, the IFN-alpha max activity is 2615 pg/mL and the TNF-alpha max activity turned out to be 23325 pg/mL. For the same substance, where the note is “read-out: IFN-alpha EC50”, the EC50 is 582 nM. In addition, under “read-out: TNF-alpha EC50”, the 50% effective concentration (EC50) came to 125 nM.
Consider “U*U*U*U*A*U*U*U*U*A*U*U*U*U*A*U*U*U*U*A (UUUUAUUUUAUUUUAUUUUA; chemistry not fully specified) [SEQ ID NO: 15]”, for which the “IFN-alpha production upon PBMC stimulation (in words)” value is recorded as “induced IFN-alpha production”, the IFN-alpha result is “+” and the TNF-alpha entry is given as “+”.
As for “C*C*G*A*G*C*C*G*A*U*U*U*C*A*C*C (CCGAGCCGAUUUCACC; listed as RNA, chemistry not fully specified) [SEQ ID NO: 71]”, the IFN-alpha max activity is 1626 pg/mL and the TNF-alpha max activity came out at 45164 pg/mL. For the same substance, the EC50 (read-out: IFN-alpha EC50) is 51 nM. Moreover, where the note is “read-out: TNF-alpha EC50”, the EC50 was found to be 160 nM.
